{
  "source": "patent US20200260697A1",
  "about": "“METHODS OF MOUSE CLINICAL TRIAL” (CROWN BIOSCIENCE, INC. (TAICANG), priority 2016, published 2020)",
  "type_in_all_cases": "in vivo, mouse",
  "key": {"[1]": {"test_system": "42 PDXs including 13 esophageal cancers (ES), 21 gastric cancers (GA) and 8 lung cancers(LU)", "assay": "MCT evaluating cisplatin response on 42 PDXs, tumor volume analysed by linear mixed model (Equation 7) and AUC ratio", "method": "In a MCT, tumor volume is measured at multiple time points for each mouse, and these tumor volumes are often correlated, as in a typical longitudinal study. As shown above, almost all growth curves under vehicle treatment can be modeled by the linear Equation 2, and under drug treatment, about 80% of the growth curves are linear or close to linear. If we introduce a quadratic term on the day (x^2), more than 90% of the growth curves can be fitted with R^2>0.7, and 97% with R^2>0.4. With such strong linearity, the linear mixed models (LMM) is a proper and powerful tool to analyze the clustered longitudinal data from MCTs (West B T et al., “Linear Mixed Models: A Practical Guide Using Statistical Software, Second Edition”, Crc Press (2014)). Specifically, a 3-level model is appropriate, in which PDX and mouse are random factors, and covariates at the PDX-level and mouse-level can be included (FIG. 9A). We used an MCT to illustrate the application of LMMs for drug response evaluation and biomarker discovery. The MCT evaluated cisplatin response (4 mg/kg, daily dosing for 3 weeks) on 42 PDXs including 13 esophageal cancers (ES), 21 gastric cancers (GA) and 8 lung cancers(LU), each PDX had 5-9 mice (FIGS. 9B-C). A general model was specified for tumor volume, in log scale, at day t for mouse i within PDX j as follows: [formula] The model used vehicle in ES as the reference. There were […], β0 for the intercept, β1 for the time slope, β2 and β3 quantify the growth rate difference of GA and LU with respect to ES, β4 measures cisplatin effect, β5 and β6 check if GA and LU respond differently to cisplatin. The model also had 5 random effects, including the residual ϵtij. In a MCT, we can view the cohort of PDXs as random samples from a PDX or patient population, therefore, they have different growth rates, which is modeled by the random effect u1j associated with the time slope. Similarly, we model the growth difference for mice within a PDX by the random effect u1i|j. Mice and PDX may also have different starting tumor volumes, which are modeled by the two random effects on intercept: u0j and u0i|j. Therefore, our LMM captures both PDX-level and mouse-level growth heterogeneity under vehicle and drug treatments. […] From the model, we can get fitted cancer specific growth curves, as well as PDX and mouse specific growth curves. On average, cisplatin reduces tumor growth rate by about 38%."}, "[2]": {"test_system": "42 PDXs including 13 esophageal cancers (ES), 21 gastric cancers (GA) and 8 lung cancers(LU)", "assay": "Survival analysis (PFS, OS) of the cisplatin MCT dataset, additive frailty model and proportional hazard Cox model", "details": "cisplatin versus vehicle", "description": "Survival analysis are the most important endpoints of human clinical trials and can also be potentially adapted to MCT by first defining “clinical endpoint” of PFS (progress-free survival) and OS (overall survival) in preclinical setting. By the RECIST standard (Therasse P et al., J Natl Cancer Inst (2000) 92(3):205-16), we define PFS as the time until the starting tumor volume increases by 73%, and define OS as the time until the starting tumor volume triples, at which the tumor volume is usually between 300-600 mm^3, depending on initial tumor volumes. As we have shown in examples above, tumors already start exponential growth before it reaches 600 mm^3. The definitions are more of a custom and can certainly be adjusted otherwise. For example, Gao et al defined PFS as the time until tumor volume doubles (Gao H et al., Nat Med (2015) 21(11):1318-25). We can also define OS as the time until the starting tumor volume quadruples and so on.\nIn human oncology trails, survival time of patients is usually assumed to be independent of each other. […] Mice have correlated survival time both within a PDX and between treatments (FIGS. 10A-B). There is heterogeneity on hazard and drug response for PDXs. We used an additive frailty model to fit the survival data in MCTs (Rondeau V et al., J Statistical Software (2012) 47(4):1-28; Hanagal D D, Statistical Methods in Medical Research (2015) 24(6):936-36). In this model, the hazard function for the j-th mouse of the i-th PDX is\nhij(t)=h0(t)exp(ui+(w+vi)Tij+β^TXi)\nwhere h0(t) is the baseline hazard function. Parameter ui is the random effect (the first frailty term) associated with the i-th PDX that captures its characteristic growth, thus survival behavior, without drug treatment. Parameter vi is the random effect (the second frailty term) associated the i-th PDX that depicts its drug response deviating from the mean drug effect w of all PDXs. Tij is the treatment variable and it equals 0 for the vehicle treatment and 1 for the drug treatment; Xi is a vector for the PDX's covariates, e.g., cancer type and gene expression; β^T is the parameter vector quantifying the fixed effects of the covariates. The two random effects ui and vi assume a bivariate normal distribution with zero means, variance σ^2 and τ^2, and covariance ρστ. If the two random effects ui and vi are removed, the model reduces to the proportional hazard Cox model.\nWe used the cisplatin dataset in the previous example to illustrate modeling by the additive frailty model, using the R package frailtypack (Rondeau V et al., J Statistical Software (2012) 47(4):1-28). For simplicity, we used treatment as the sole covariate. By Equation 10, we observed that both frailty terms are significant larger than 0 (Wald test p-value<0.05) for PFS and OS analyses. […]"}, "gastric cancer PDXs": {"test_system": "gastric cancer PDXs", "assay": "LMM (Equation 8) of the cisplatin dataset with ERCC1 expression as covariate", "details": "LMM Equation 8, gastric cancer PDXs", "description": "The LMM can readily incorporate PDX-level genomic covariates, e.g. gene expression and mutation, for biomarker analysis. We used the same dataset to examine if ERCC1 expression is related to cisplatin response in gastric cancer by fitting the following LMM:\nlnVtij=β0+β1×Dayt+β2×Dayt×ERCC1j+β3×Dayt×Treatmentij+β4×Dayt×ERCC1j×Treatmentij+u0j+u1j×Dayt+u(0i|j)+u(1i|j)×Dayt+ϵtij (8)\nIn this model, β2 evaluates ERCC1 expression as a prognostic biomarker since it is for both vehicle and cisplatin groups. […] The coefficient β4 examines ERCC1 expression as a predictive biomarker for cisplatin. The fitted value of β4 is 0.0136, close to that of β2. Therefore, high ERCC1 expression acts adversely to cisplatin treatment (FIG. 9E). The parameter β3 quantifies cisplatin treatment and is estimated to be −0.0879. Results from our LMM may have clinical implications."}},
  "data": [
    {"smiles": "N.N.[Cl][Pt][Cl]", "note": "[cisplatin]", "values": [
      {"measurement": "response across cancer types", "setting": "[1]; ES, GA and LU PDXs, p-values for β5 and β6 >0.05", "value": "comparable responses on the 3 cancer types"},
      {"measurement": "β4 (Day × Treatment) estimate, cisplatin effect on growth rate of ln tumor volume", "setting": "[1]; LMM Equation 7, vehicle in ES as reference, REML estimate, second figure not defined, p-value 1.2E−19", "value": "−0.0282(0.0031)"},
      {"measurement": "β5 (Day × CancerTypeGA × Treatment) estimate", "setting": "[1]; LMM Equation 7, checks if GA responds differently to cisplatin than ES, REML estimate, second figure not defined, p-value 0.35", "value": "0.0037(0.0039)"},
      {"measurement": "β6 (Day × CancerTypeLU × Treatment) estimate", "setting": "[1]; LMM Equation 7, checks if LU responds differently to cisplatin than ES, REML estimate, second figure not defined, p-value 0.84", "value": "−0.0011(0.0052)"},
      {"measurement": "reduction of tumor growth rate, on average (LMM)", "setting": "[1]; cisplatin 4 mg/kg, daily dosing for 3 weeks, 42 PDXs, 5-9 mice each, LMM Equation 7", "value": "about 38%"},
      {"measurement": "reduction of tumor growth rate by the AUC ratio method", "setting": "[1]; cisplatin 4 mg/kg, daily dosing for 3 weeks, 42 PDXs, AUC ratio method", "value": 36, "unit": "%"},
      {"measurement": "hazard ratio (HR) for OS", "setting": "[2]; additive frailty model, OS = time until starting tumor volume triples", "value": "0.21 (95% CI: 0.15-0.31)"},
      {"measurement": "hazard ratio (HR) for PFS", "setting": "[2]; additive frailty model, PFS = time until starting tumor volume increases by 73%", "value": "0.40 (95% CI: 0.31-0.50)"},
      {"measurement": "OS HR", "setting": "[2]; proportional hazard Cox model", "value": "0.36 (95% CI: 0.28-0.46)"},
      {"measurement": "PFS HR", "setting": "[2]; proportional hazard Cox model", "value": "0.48 (95% CI: 0.40-0.58)"},
      {"measurement": "β3 (Day × Treatment), quantifies cisplatin treatment", "setting": "gastric cancer PDXs; ERCC1 expression as covariate", "value": "−0.0879"},
      {"measurement": "β4 (Day × ERCC1 × Treatment), ERCC1 expression as predictive biomarker for cisplatin", "setting": "gastric cancer PDXs; positive value: high ERCC1 expression acts adversely to cisplatin treatment", "value": 0.0136}
    ]}
  ]
}
